From article PMC8881610 (Nature Communications, 2022) come the findings set out here.

The structures appear in SMILES notation. Where two headings read alike, the source gives them in different places. Where a SMILES comes first, the peptide text is derived from it. [ ]: non-standard residue; d: D form. Aib = CC(C)(N)C(=O)O

One may read the Emax as the greatest response seen or fitted, relative to the assay's reference.

One assay addresses GCGR (Homo sapiens, UniProt P47871). Kind of assay: cAMP accumulation assay, GCGR WT, mutant or modified constructs. On the set-up: V5 (C); 6×His (C); expressed in transfected cells; host or cells: HEK293T. The settings on record: for EC50 / Emax: HEK293T; for Emax: HEK-293T. In kind it is cell-based. The method, then: Human embryonic kidney 293 cells containing SV40 large T-antigen (HEK293T) were cultured in DMEM (Gibco) supplemented with 10% (v/v) fetal bovine serum (FBS, Gibco), 1 mM sodium pyruvate (Gibco) and 100 units/mL penicillin and 100 μg/mL streptomycin at 37 °C in 5% CO2. Chinese hamster ovary (CHO-K1) cells were cultured in F-12 (Gibco) containing 10% FBS, 100 units/mL penicillin and 100 μg/mL streptomycin at 37 °C in 5% CO2. For cAMP and receptor expression assays, HEK293T cells were seeded into 6-well cell culture plates at a density of 7 × 10^5 cells per well. After overnight incubation, cells were transfected with GIPR, GLP-1R or GCGR construct using Lipofectamine 2000 or Lipofectamine 3000 transfection reagent (Invitrogen). For whole-cell binding assay, CHO-K1 cells were seeded into 96-well fibronectin-treated cell culture plates at a density of 3 × 10^4 cells per well. After overnight incubation, cells were transfected with GIPR, GLP-1R or GCGR construct using Lipofectamine 2000 transfection reagent (Invitrogen). Following 24 h culturing, the transfected cells were ready for use. […]
(§1) For GIPR, GLP-1R and GCGR, multi-targeting agonist stimulated cAMP accumulation was measured by a LANCE Ultra cAMP kit (PerkinElmer). After 24 h culture, the transfected cells were seeded into 384-well microtiter plates at a density of 3,000 cells per well in HBSS supplemented with 5 mM HEPES, 0.1% (w/v) BSA or 0.1% (w/v) casein and 0.5 mM 3-isobutyl-1-methylxanthine. The cells were stimulated with different concentrations of peptide agonists for 40 min at RT. Eu-cAMP tracer and ULight^TM-anti-cAMP were then diluted by cAMP detection buffer and added to the plates separately to terminate the reaction. Plates were incubated at RT for 1 h and the fluorescence intensity measured at 620 nm and […] by an EnVision multilabel plate reader (PerkinElmer).
In general terms: Cyclic AMP is a second messenger, typically raised through Gs and lowered through Gi signalling.

The target in assay [1] is GLP-1R (Homo sapiens, UniProt P43220, W214A). The assay is described as follows: Whole-cell binding assay, competition with 125I-GLP-1(7-36)NH2. On the set-up: Flag; expressed in transfected cells. The following applies: GLP-1R W214A, CHO-K1. The protocol: (§2) Human embryonic kidney 293 cells containing SV40 large T-antigen (HEK293T) were cultured in DMEM (Gibco) supplemented with 10% (v/v) fetal bovine serum (FBS, Gibco), 1 mM sodium pyruvate (Gibco) and 100 units/mL penicillin and 100 μg/mL streptomycin at 37 °C in 5% CO2. Chinese hamster ovary (CHO-K1) cells were cultured in F-12 (Gibco) containing 10% FBS, 100 units/mL penicillin and 100 μg/mL streptomycin at 37 °C in 5% CO2. For cAMP and receptor expression assays, HEK293T cells were seeded into 6-well cell culture plates at a density of 7 × 10^5 cells per well. After overnight incubation, cells were transfected with GIPR, GLP-1R or GCGR construct using Lipofectamine 2000 or Lipofectamine 3000 transfection reagent (Invitrogen). For whole-cell binding assay, CHO-K1 cells were seeded into 96-well fibronectin-treated cell culture plates at a density of 3 × 10^4 cells per well. After overnight incubation, cells were transfected with GIPR, GLP-1R or GCGR construct using Lipofectamine 2000 transfection reagent (Invitrogen). Following 24 h culturing, the transfected cells were ready for use.
GLP-1R (Homo sapiens, UniProt P43220, W214A), sequence (P43220 24-463 W214A): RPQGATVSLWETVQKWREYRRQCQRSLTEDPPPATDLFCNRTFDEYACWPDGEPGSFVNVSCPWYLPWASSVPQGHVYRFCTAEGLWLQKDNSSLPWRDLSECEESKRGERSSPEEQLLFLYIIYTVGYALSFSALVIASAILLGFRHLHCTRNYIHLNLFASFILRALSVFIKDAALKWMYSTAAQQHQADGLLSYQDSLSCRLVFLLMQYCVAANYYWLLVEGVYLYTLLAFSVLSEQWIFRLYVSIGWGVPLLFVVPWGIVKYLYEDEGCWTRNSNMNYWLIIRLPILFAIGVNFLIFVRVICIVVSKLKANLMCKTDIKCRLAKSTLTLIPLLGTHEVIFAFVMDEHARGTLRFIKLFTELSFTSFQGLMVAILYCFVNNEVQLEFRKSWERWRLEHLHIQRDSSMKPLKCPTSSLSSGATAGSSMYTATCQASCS
(§3) For GLP-1R and GCGR, CHO-K1 cells (30,000 cells/well) were seeded into Isoplate-96 plates and incubated for 24 h at 37 °C in 5% CO2. The WT or mutant constructs were transiently transfected using Lipofectamine 2000 transfection reagent as previous described. They were then washed twice using F-12 with 0.1% BSA or 0.1% casein, 33 mM HEPES, and incubated for 2 h at 37 °C. […] Cells were washed three times with ice-cold PBS and lysed in PBS with 1% Triton X-100, 20 mM Tris-HCl. After addition of scintillation cocktail (PerkinElmer), radioactivity (CPM) was counted on a MicroBeta^2 microplate counter (PerkinElmer). Data were normalized to the WT response and analyzed using three-parameter logistic equation.

Assay [2] concerns the target GLP-1R (Homo sapiens, UniProt P43220, Y148A). Described as above. On the set-up: Flag; expressed in transfected cells. The following applies: GLP-1R Y148A, CHO-K1. The method, then: as §2, §3
The target of the next assay is T1, GIPR (Homo sapiens, UniProt P48546, T345F).
T1 sequence (P48546 22-466 T345F): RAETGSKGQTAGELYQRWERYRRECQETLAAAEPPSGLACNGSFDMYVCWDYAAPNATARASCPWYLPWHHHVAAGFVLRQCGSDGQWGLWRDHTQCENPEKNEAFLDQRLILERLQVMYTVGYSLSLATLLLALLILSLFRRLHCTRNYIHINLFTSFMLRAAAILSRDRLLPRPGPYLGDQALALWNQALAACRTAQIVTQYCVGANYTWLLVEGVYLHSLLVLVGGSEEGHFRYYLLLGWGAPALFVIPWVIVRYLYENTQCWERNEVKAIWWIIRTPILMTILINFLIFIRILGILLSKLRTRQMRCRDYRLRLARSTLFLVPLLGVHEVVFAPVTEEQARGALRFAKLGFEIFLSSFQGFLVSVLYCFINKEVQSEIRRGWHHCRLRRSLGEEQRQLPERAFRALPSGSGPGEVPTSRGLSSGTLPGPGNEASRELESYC
The assay is described as follows: cAMP accumulation assay (LANCE Ultra cAMP kit), GIPR WT, mutant or modified constructs. The following applies: GIPR T345F, HEK293T; for EC50: read-out: cAMP pEC50 (converted). It is filed as cell-based. Further details: acylated tirzepatide to the full-length or modified; Flag; expressed in transfected cells; host or cells: HEK293T. The protocol:
as §2
A BRIL fusion protein was added at the N-terminal of the ECD with a TEV protease site and 2GSA linker between them. C-terminal 45 amino acids (Q422-C466) of the receptor were truncated. LgBiT was added at the end of helix 8 with a 15-amino acid (15AA) polypeptide linker in between, followed by a TEV protease cleavage site and an OMBP-MBP tag. […] The construct and various mutants of human GIPR were cloned into pcDNA3.1 vector for cAMP accumulation and whole-cell binding assays.
as §1

Where [3] appears, read: GCGR WT, 0.1% BSA, read-out: cAMP accumulation Emax.
Setting [4] is: GCGR WT, 0.1% casein, read-out: cAMP accumulation Emax.
Setting [5] is: read-out: binding pIC50 (converted).

GCGR, sequence (P47871 26-477): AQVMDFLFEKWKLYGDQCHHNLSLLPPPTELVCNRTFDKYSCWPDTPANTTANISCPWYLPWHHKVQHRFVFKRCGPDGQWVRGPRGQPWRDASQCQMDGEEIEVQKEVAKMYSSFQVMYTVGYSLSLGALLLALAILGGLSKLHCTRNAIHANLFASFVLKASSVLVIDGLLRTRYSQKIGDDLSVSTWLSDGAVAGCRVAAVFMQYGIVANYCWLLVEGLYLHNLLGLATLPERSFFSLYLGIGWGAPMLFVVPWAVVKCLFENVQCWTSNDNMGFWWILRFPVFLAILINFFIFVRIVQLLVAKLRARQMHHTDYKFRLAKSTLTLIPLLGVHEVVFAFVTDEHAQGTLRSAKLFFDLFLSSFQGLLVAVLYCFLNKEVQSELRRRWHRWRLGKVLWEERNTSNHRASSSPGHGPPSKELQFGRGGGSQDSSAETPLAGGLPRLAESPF
GLP-1R (Homo sapiens, UniProt P43220, Y148A), sequence (P43220 24-463 Y148A): as the sequence (P43220 24-463 W214A) above, with Y125A, A191W counted along it

On to `CC(C)C[C@H](NC(=O)[C@H](CC(C)C)NC(=O)[C@H](Cc1c[nH]c2ccccc12)NC(=O)[C@H](CCC(N)=O)NC(=O)[C@@H](NC(=O)[C@H](Cc1ccccc1)NC(=O)[C@H](CC(=O)O)NC(=O)[C@H](CCC(N)=O)NC(=O)[C@H](C)NC(=O)[C@H](C)NC(=O)[C@H](CCCNC(=N)N)NC(=O)[C@H](CCC(=O)O)NC(=O)[C@H](CC(=O)O)NC(=O)[C@H](CC(C)C)NC(=O)[C@H](Cc1ccc(O)cc1)NC(=O)[C@H](CCCCN)NC(=O)[C@H](CO)NC(=O)[C@H](CCCCN)NC(=O)[C@H](CC(=O)O)NC(=O)[C@H](CO)NC(=O)[C@@H](NC(=O)[C@H](Cc1ccccc1)NC(=O)[C@@H](NC(=O)CNC(=O)[C@H](CCC(N)=O)NC(=O)C(C)(C)NC(=O)[C@@H](N)Cc1c[nH]cn1)[C@@H](C)O)[C@@H](C)O)C(C)C)C(=O)N[C@@H](CC(=O)O)C(=O)NCC(=O)NCC(=O)N1CCC[C@H]1C(=O)N[C@@H](CO)C(=O)N[C@@H](CO)C(=O)NCC(=O)N[C@@H](C)C(=O)N1CCC[C@H]1C(=O)N1CCC[C@H]1C(=O)N1CCC[C@H]1C(=O)N[C@@H](CO)C(N)=O` [Non-lipidated peptide 20] (H-H[Aib]QGTFTSDKSKYLDERAAQDFVQWLLDGGPSSGAPPPS-NH2; N-terminus and C-terminus assumed), for which the EC50 on GCGR (GCGR WT, 0.1% BSA, read-out: cAMP accumulation pEC50 (converted)) is 1.95 nM. For the same molecule, the “reduction of cAMP accumulation vs peptide 20” value on GCGR (GCGR, 0.1% BSA) turned out to be 759 fold. Further, the “EC50 for cAMP accumulation relative to peptide 20” value on GCGR (GCGR, 0.1% casein) is reported as −1,514 fold. The figures for the Emax at GCGR (setting [3]) and on GCGR (setting [4]) were 105 ± 2.16% and 103 ± 1.98%, respectively.
For the molecule `CCCCCCCCCCCCCCCC(=O)N[C@@H](CCC(=O)NCCCC[C@H](NC(=O)[C@H](CC(=O)O)NC(=O)[C@H](CO)NC(=O)[C@@H](NC(=O)[C@H](Cc1ccccc1)NC(=O)[C@@H](NC(=O)CNC(=O)[C@H](CCC(N)=O)NC(=O)C(C)(C)NC(=O)[C@@H](N)Cc1c[nH]cn1)[C@@H](C)O)[C@@H](C)O)C(=O)N[C@@H](CO)C(=O)N[C@@H](CCCCN)C(=O)N[C@@H](Cc1ccc(O)cc1)C(=O)N[C@@H](CC(C)C)C(=O)N[C@@H](CC(=O)O)C(=O)N[C@@H](CCC(=O)O)C(=O)N[C@@H](CCCNC(=N)N)C(=O)N[C@@H](C)C(=O)N[C@@H](C)C(=O)N[C@@H](CCC(N)=O)C(=O)N[C@@H](CC(=O)O)C(=O)N[C@@H](Cc1ccccc1)C(=O)N[C@H](C(=O)N[C@@H](CCC(N)=O)C(=O)N[C@@H](Cc1c[nH]c2ccccc12)C(=O)N[C@@H](CC(C)C)C(=O)N[C@@H](CC(C)C)C(=O)N[C@@H](CC(=O)O)C(=O)NCC(=O)NCC(=O)N1CCC[C@H]1C(=O)N[C@@H](CO)C(=O)N[C@@H](CO)C(=O)NCC(=O)N[C@@H](C)C(=O)N1CCC[C@H]1C(=O)N1CCC[C@H]1C(=O)N1CCC[C@H]1C(=O)N[C@@H](CO)C(N)=O)C(C)C)C(=O)O` [Peptide 20], the EC50 on GCGR (GCGR WT, read-out: cAMP pEC50 (converted)) was 0.00562 nM; on GCGR (GCGR, n = 4, SEM, read-out: cAMP pEC50 ± S.E.M. (converted)) it was 0.00263 nM; on GIPR it was 0.00794 nM. Further, the Emax is 101 ± 1.36% on GCGR (setting [3]); 100.2 ± 0.86% at GCGR (setting [4]); 99.3 ± 1.73% on GCGR (GCGR WT, read-out: cAMP Emax); 101 ± 1.68% at GCGR (GCGR, n = 4, SEM, read-out: cAMP Emax ± S.E.M.); 99.6 ± 2.09% on GIPR (HEK-293T). Further, the results for the “binding Span” value at GLP-1R [1] and at GLP-1R [2] were 10.25 ± 1.71 % WT and 8.73 ± 2.65 % WT, respectively. The results for the IC50 on GLP-1R [1] (setting [5]) and on GLP-1R [2] (setting [5]) were 17 nM and 15.5 nM, respectively.
Consider `CC[C@H](C)[C@H](NC(=O)[C@H](CC(C)C)NC(=O)[C@H](Cc1c[nH]c2ccccc12)NC(=O)[C@H](CCC(N)=O)NC(=O)[C@@H](NC(=O)[C@H](Cc1ccccc1)NC(=O)[C@H](C)NC(=O)[C@H](CCCCNC(=O)COCCOCCNC(=O)COCCOCCNC(=O)CC[C@H](NC(=O)CCCCCCCCCCCCCCCCCCC(=O)O)C(=O)O)NC(=O)[C@H](CCC(N)=O)NC(=O)[C@H](C)NC(=O)[C@@H](NC(=O)[C@H](CCCCN)NC(=O)[C@H](CC(=O)O)NC(=O)[C@H](CC(C)C)NC(=O)C(C)(C)NC(=O)[C@@H](NC(=O)[C@H](CO)NC(=O)[C@H](Cc1ccc(O)cc1)NC(=O)[C@H](CC(=O)O)NC(=O)[C@H](CO)NC(=O)[C@@H](NC(=O)[C@H](Cc1ccccc1)NC(=O)[C@@H](NC(=O)CNC(=O)[C@H](CCC(=O)O)NC(=O)C(C)(C)NC(=O)[C@@H](N)Cc1ccc(O)cc1)[C@@H](C)O)[C@@H](C)O)[C@@H](C)CC)[C@@H](C)CC)C(C)C)C(=O)N[C@@H](C)C(=O)NCC(=O)NCC(=O)N1CCC[C@H]1C(=O)N[C@@H](CO)C(=O)N[C@@H](CO)C(=O)NCC(=O)N[C@@H](C)C(=O)N1CCC[C@H]1C(=O)N1CCC[C@H]1C(=O)N1CCC[C@H]1C(=O)N[C@@H](CO)C(N)=O` [Tirzepatide], for which the “binding Span” value at GLP-1R [1] is recorded as 11.88 ± 1.32 % WT; at GLP-1R [2], 12.31 ± 2.51 % WT. Besides, at GIPR, the EC50 was 0.0141 nM.
